Results from ChEMBL document CHEMBL4033765, “Synthesis and Evaluation of a Linkable Functional Group-Equipped Analogue of the Epothilones” (2017).

How the values were obtained:
[1] = system: PC-3; experiment: Growth inhibition of human PC3 cells after 4 days by SRB assay; assay type: functional; conditions: PC-3, 96 h
[2] = system: A549; experiment: Growth inhibition of human A549 cells after 4 days by SRB assay; assay type: functional; conditions: A549, 96 h

| Compound | GI50 [1] | GI50 [2] |
| --- | --- | --- |
| COCCOCCC(=O)NCCCC[C@H]1C(=O)C(C)(C)[C@@H](O)CC(=O)O[C@H](/C(C)=C/c2csc(C)n2)C[C@@H]2O[C@]2(C)CCC[C@H](C)[C@@H]1O | 1.9 nM | 0.9 nM |
| C/C(=C\c1csc(C)n1)[C@@H]1C[C@@H]2O[C@]2(C)CCC[C@H](C)[C@H](O)[C@@H](C)C(=O)C(C)(C)[C@@H](O)CC(=O)O1 [PATUPILONE] | 1.7 nM | 0.7 nM |
| CC(=O)NCCCC[C@H]1C(=O)C(C)(C)[C@@H](O)CC(=O)O[C@H](/C(C)=C/c2csc(C)n2)C[C@@H]2O[C@]2(C)CCC[C@H](C)[C@@H]1O | 2 nM | 1 nM |
| CC(=O)O[C@H]1C(=O)[C@@]2(C)[C@H]([C@H](OC(=O)c3ccccc3)[C@]3(O)C[C@H](OC(=O)[C@H](O)[C@@H](NC(=O)c4ccccc4)c4ccccc4)C(C)=C1C3(C)C)[C@]1(OC(C)=O)CO[C@@H]1C[C@@H]2O [PACLITAXEL] | 5.8 nM | 3.7 nM |
